Assay results published in a melting point compilation (Tetko et al.).
Peptide text beside a SMILES is read from it.

SMILES | melting point [°C]
c1ccc(-c2nc3ccccc3[nH]2)cc1 | 293 to 296
CNC(=O)Oc1cc(C)cc(C)c1 | 99
O=C(Cl)C(Cl)(c1ccccc1)c1ccccc1 | 47 to 52
O=S(=O)(O)CCCNC(CO)(CO)CO | 240
Cc1cc(O)c(C(=O)c2ccccc2)cc1Cl | 138 to 142
O=C(O)COc1cccc(Cl)c1Cl | 174
O=C(Cl)OCC(Cl)(Cl)Cl | 1
COc1ccc(C(=O)Oc2ccc(/C=C/C(=O)c3ccccc3)cc2)cc1 | 156
CCCCCCCCCCOc1ccc(C=O)cc1OCCCCCCCCCC | 61 to 66
O=C(O)Cc1noc2ccccc12 | 123 to 125
Clc1cccc2c(C#Cc3ccccc3)c3cccc(Cl)c3c(C#Cc3ccccc3)c12 | 167 to 170
COP(=S)(Oc1cc(Cl)c(Br)cc1Cl)c1ccccc1 (stereo not drawn) | 70.4
O=CC(Cl)(Cl)Cl | -57.5
Cc1ccccc1NC(=S)/C(=N\NC(=N)N)c1ccccc1 | 206 to 207
OC1CCc2ccccc2C1 (stereo not drawn) | 15.5
COC(=O)CCC(C)C1CCC2C3CCC4CC(=O)CCC4(C)C3CC(=O)C12C (stereo not drawn) | 129 to 130
Nc1c(Cl)cc(F)cc1Br | 56
O=[N+]([O-])c1cccc(F)c1 | 41
Oc1ccc2ncccc2c1 | 190 to 195
CC1=C(C)C2(C)C(C)=C(C)C12C (stereo not drawn) | 0.7
O=C(OCC(O)CO)c1ccccc1Nc1ccnc2cc(Cl)ccc12 (stereo not drawn) | 170
Nc1cc(-c2ccc(Cl)cc2)n[nH]1 | 174 to 176
COC(=O)c1sccc1-n1cccc1 | 61
CCC(C)(C)S | -104
O=[N+]([O-])c1ccc(O)c([N+](=O)[O-])c1 | 116
CC(=O)O[Si](OC(C)=O)(OC(C)=O)OC(C)=O | 110
C=C(Br)CC1(C(C)C)C(=O)NC(=O)NC1=O | 177
O=C(C1=NOC2C(=O)N(c3ccc(F)cc3)C(=O)C12)c1ccc(Cl)cc1 (stereo not drawn) | 151

SMILES | melting point [°C]
CC=Cc1cc(OC)c(OC)cc1OC | 62.5
CC(N)Cc1ccc(O)cc1 (stereo not drawn) | 126
Nc1ncnc2c1ncn2C1CC(O)C(COP(=O)(O)O)O1 (stereo not drawn) | 148
CNP(=O)(NC)Oc1ccccc1 | 102
CC(=O)Nc1cc(NC(C)=O)c(C=Cc2ccccc2)c(NC(C)=O)c1C=Cc1ccccc1 | 330
CC12CCC(=O)C=C1CCC1C2CCC2(C)C(OC(=O)CCC3CCCC3)CCC12 (stereo not drawn) | 155
CC(C)(C)OOC(C)(C)C | -30
Cn1c(=O)cc(O)c2ccccc21 | 264 to 266
Cc1noc(-c2ccccc2)c1C=O | 85 to 87
NC(=O)C(F)(F)Cl | 82
C=C(C)C(C)=O | -54
O=C(Cl)CCCCl | -47
COC(=O)[C@]12c3ccccc3[C@]34c5ccccc5[C@H]1[C@@]32C(=O)O[C@@H]4C | 203
CC(=NOCc1cccc(C(=O)O)c1)c1ccc(Cl)c(Cl)c1 | 175 to 178
CC(=NO)C(=O)c1ccccc1 | 114
C[Si](C)(C)CC(=O)O | 41
Nc1ccc(-c2ccc(N)c(Cl)c2)cc1Cl | 132
ON=C1CCCc2c1nc(-c1ccccc1)n2O | 270 to 272
N#Cc1ccc(Br)cc1F | 71
COc1ccc(C(C)=O)cc1CCl | 116 to 118
N#Cc1ccc(N2CCCC2)cn1 | 106 to 108
Nc1cccc(C(c2cccc(N)c2)(C(F)(F)F)C(F)(F)F)c1 | 86
Cc1ccn2nc(S(=O)(=O)Nc3c(F)cccc3F)nc2n1 | 252
NCCOS(=O)(=O)O | 277 to 280
N#Cc1ccc(NN)c(Cl)c1 | 127 to 128
CNC1=C(c2cccc(C(F)(F)F)c2)C(=O)C(c2ccccc2)O1 (stereo not drawn) | 148
CC(C)=CCCC(C)=CC=CC(C)=CC=CC(C)=CC=CC=C(C)C=CC=C(C)C=CC=C(C)CCCC(C)(C)O | 171

More lines, now with the values ahead:

melting point [°C] | SMILES
125 | CC(C)(C)OC(=O)N[C@H]1CCCNC1
197 to 201 | COC(=O)c1nc[nH]c1C(=O)OC
98 to 100 | Cc1cc(C(F)(F)F)n2nc(N)c(/N=N/c3c(Br)cc(Br)cc3Br)c2n1
119 | CC(C)(C)C(=O)OCOC(=O)C1N2C(=O)C(N=CN3CCCCCC3)C2SC1(C)C (stereo not drawn)
181 to 182 | NNC(=O)CSC1CS(=O)(=O)c2cc([N+](=O)[O-])ccc21 (stereo not drawn)
196 | CC(=O)c1ccc(OC2OC(CO)C(O)C(O)C2O)cc1 (stereo not drawn)
175 to 179 | COC(=O)c1cc2cc(S(C)(=O)=O)ccc2[nH]1
169 to 174 | COc1ccnc(-c2cc(OC)ccn2)c1
165 to 167 | O=C(O)c1cccnc1Sc1ccccc1
124 | CC1(C)SC2C(NC(=O)COc3ccccc3)C(=O)N2C1C(=O)O (stereo not drawn)
50 to 52 | CCOC(=O)c1csc(-c2ccc(F)cc2F)n1
72 | CC(=O)C(C#N)c1ccccc1[N+](=O)[O-] (stereo not drawn)
154 | CC(=O)Nc1ccc(N)cn1
270 | NC(=O)NN=Cc1ccc2c(Br)cccc2c1
155 to 158 | NCC(=O)N[C@@H](CCC(=O)O)C(=O)O (H-Gly-Glu-OH)
< 25 | CC1=CCC(=C(C)C)CC1
-20 | Fc1ccc(I)cc1
115 | COC(=O)c1csc(C=O)c1
137 | CC=C1CCC2C3CC=C4CC(OC(C)=O)CCC4(C)C3CCC12C (stereo not drawn)
114 | O=C(O)C(O)(O)C(O)(O)C(=O)O
16.1 | CCCCCCS(=O)(=O)O
135 | Cc1cc2c(o1)-c1c(oc3ccccc13)CCC2(C)c1ccccc1 (stereo not drawn)
113 | S=C(c1ccc2c(c1)OCO2)N1CCCCC1
71 | C=C(C)C(=O)OCCOC(=O)c1cc([N+](=O)[O-])cc([N+](=O)[O-])c1
72.5 | CCN(CC)C(=O)COC(=O)c1ccccc1

melting point [°C] | SMILES
275 to 278 | NC1C2CCC(C2)C1C(=O)O (stereo not drawn)
32 | OCc1ccccc1S
171 to 173 | Cc1cnnc2ccc3nonc3c12
280 | N#C/C(=N\Nc1ccc(Br)cc1)c1nc2ccccc2s1
115 to 116 | O=C(CBr)c1ccc2c(c1)OCCO2
110 to 112 | CCOC(=O)N1CCc2cc(OC)c(OC)cc2C1C#N (stereo not drawn)
79 to 80 | OCc1ccc2ncccc2c1
144 to 146 | COc1ccc2cc(Br)ccc2c1CCl
155 | N#CC(=Cc1ccccc1)C(N)=O
295 | O=C1NC(=O)C(c2ccccc2)(c2ccccc2)N1
17 to 18 | CCOC(=O)c1c(C)cc(=O)oc1C
173 | O=C(c1ccc2ccccc2c1)c1noc(-c2ccc(Br)cc2)c1S(=O)(=O)c1ccccc1
192 | Cc1cc(C)c(N)c(C(=O)O)c1
255 to 256 | Cc1nc2ccccc2c2c1C(=O)NC2=O
79 to 82 | CC(C)CCCC(C)C1CCC2C3CCC4=CC(=O)CCC4(C)C3CCC12C (stereo not drawn)
232 | NC(=S)NN=C1C(=O)Nc2ccccc21
12 | CC(=O)c1cc(Cl)ccc1Cl
360 | O=C1OC2(c3ccc(O)cc3Oc3cc(O)ccc32)c2ccc(N=C=S)cc21
103 | N#Cc1cc(F)ccc1[N+](=O)[O-]
111 | Clc1nncc2ccccc12
136 | O=C1c2ccccc2N(C(=O)CN2CCOCC2)CN1c1ccccc1
121 to 123 | O=Cc1sc(-c2ccccc2)nc1-c1ccccc1
137 | COC(=O)[C@@H](N)Cc1ccc(O)cc1
120 | O=C(NCCc1ccccn1)c1cc([N+](=O)[O-])cc([N+](=O)[O-])c1
55 | Fc1ccc(-c2ccno2)cc1

melting point [°C] | SMILES
35 | Fc1ccc(Br)c2ccccc12
166 | O=C(Nc1ccccc1CCc1ccccc1)c1ccccc1
41 | COc1ccccc1N=Nc1ccccc1
188 | Cc1cc(C)c(C2Oc3c(Cl)c(Cl)c(Cl)c(Cl)c3O2)cc1C
189 | CC(=O)N1C(=O)/C(=C(\C#Cc2ccccc2)C(=O)c2ccccc2)c2ccccc21
266 | O=[N+]([O-])c1ccc2c(c1)=NC(c1cccc(C3N=c4cc([N+](=O)[O-])ccc4=C3O)c1)C=2O (stereo not drawn)
288 | Cc1ccccc1NC=C1C(=O)NN=C1c1c(O)c2ccccc2n(C)c1=O
89 | Cc1c(C)n(C=O)c2ccccc12
45 to 47 | COc1ccc(Oc2ccc(C(F)(F)F)cc2[N+](=O)[O-])cc1
31 to 33 | COc1ccc2occc2c1
88 to 89 | O=S(=O)(Cl)Cc1cccc(Br)c1
91 | CCCC(=O)c1ccc(O)cc1
49 | O=Cc1cnc(N2CCCCC2)s1
183 | O=C1NCNC1(c1ccccc1)c1ccccc1
243 to 248 | Cc1cc(Sc2ccc(C(=O)O)cc2[N+](=O)[O-])c(C)cc1Cl
103 to 105 | N#C/C(=C/c1ccc(Cl)cc1)c1nc(-c2ccccc2)cs1
-10 | C[Si]1(C)N[Si](C)(C)N[Si](C)(C)N1
236 | O=C(COc1ccc(Cl)cc1)Nc1nc2ccc(Br)cc2s1
38 to 39 | O=Cc1cccc(-n2cccn2)c1
39 to 41 | N#CCc1coc2ccccc12
190 to 195 | COc1ccc(-c2noc(C)c2C(=O)O)cc1
104 to 108 | CC(CC(C)C(=O)O)C(=O)O (stereo not drawn)
112 | Cc1cc(C)c(C)c(CO)c1C
